# In a melting point compilation (Tetko et al.; mined from patent text by program, amines drawn as free bases though some values may be those of a salt):
row,Structure (SMILES),melting point [°C]
1,Cc1ccsc1-n1ncc(-c2ccc(S(C)(=O)=O)cc2)c(-c2ccc(F)cc2)c1=O,215 to 217
2,C#Cc1cc2ccccc2[nH]1,64 to 65
3,Cc1cn(Cc2ccc(F)cc2)c(C)c1C(=O)CC(=O)C(=O)O,184 to 185
4,CCCCCCCCCCC[C@H](CC(=O)N[C@@H](CO)C(=O)OCc1ccccc1)OC(=O)CCCCCCCCCC,53 to 54
5,O=[N+]([O-])c1cccc(-c2nnc(Nc3cccc(Br)c3)s2)c1,228 to 231
6,CCOC(=O)/C=C/c1cc(-c2ccccc2)nn1Cc1ccc(Cl)cc1Cl,123 to 124
7,CCc1cccc(C)c1CNc1cc(C(=O)N(C)C)nc2c1nc(C)n2C,133 to 136
8,O=C(O)c1ccc2cn[nH]c2c1,> 250
9,CCOC(=O)c1cc2c(C)c(OCc3ccccc3)ccc2n1C,100 to 101
10,Cc1oc(CCOc2ccc(CC3SC(=O)NC3=O)cn2)nc1Cc1ccccc1 (centres undefined),110 to 111
11,Nc1ccc(-c2nnc(-c3ccccn3)nn2)nc1,207 to 209
12,CCOC(Cc1ccc(OCCN2CCC(C)(C)c3cc(C(=NOC)c4ccccc4)ccc32)cc1)C(=O)O (centres undefined),62 to 64
13,CN(C)c1ccc2c(c1)c(=O)[nH]c(=O)n2CCCCN1CCC(OC(c2ccccc2)c2ccccc2)CC1,165 to 167
14,COc1ccc(Nc2nc(Cl)nc(Cl)n2)cc1Cl,165
15,COc1ccc2cccc(Cc3ccccc3)c2c1O,67 to 71
16,CC(C)c1c(S(=O)(=O)c2ccc(O)cc2)n(C)c2ccccc12,188
17,COC(=O)Nc1ccc(-c2cccc(C3=NC(C)(C)Cc4cc(OC)c5c(c43)CC(C)(C)O5)c2)cc1,129 to 133
18,CCCCCC(=O)NCc1nc(-c2ccc3c(c2)Nc2ccccc2S3)cs1,192 to 194
19,CCc1ccc2c(O)cnn2c1,78 to 79
20,Cc1cc2c(C#N)ccc(C#N)c2cc1C,225 to 227

row,Structure (SMILES),melting point [°C]
1,COc1ccc2c(c1)c(O)c(C(=O)Nc1ccccc1)c(=O)n2C,199 to 200
2,O=C(NCCc1ccc(Cl)cc1)C1Cc2ccccc2N1S(=O)(=O)c1ccc(-c2ccc(F)cc2)cc1 (centres undefined),126
3,COc1ccc(NC2(C#N)CCCCC2)cn1,121 to 123
4,CCCSC1=NSc2cc(C)cnc2N1Cc1ccc(-c2ccccc2C#N)cc1,190 to 192
5,CC(=O)NCc1coc2cc(NS(C)(=O)=O)c(Oc3ccccc3)cc2c1=O,240 to 242
6,COc1ccc(C(=O)N2CCOc3ccc(C4=NNC(=O)CC4)cc32)cc1OC,207 to 208
7,CCOC(=O)c1ccc2c(c1)S[C@@H](c1ccc(OC)cc1)[C@@H](OC(C)=O)C(=O)N2CCN(C)C (racemic),167 to 171
8,O=C(NCCO)C(=O)c1ccc(OCCOc2ccc3ccccc3c2)cc1,138 to 140
9,CCCCCS(=O)(=O)NC(=O)/C=C/c1ccc(OCCC2OCCO2)cc1Oc1ncc(C(F)(F)F)cc1Cl,116 to 118
10,FC(F)(F)c1nc(-c2ncn3c2nc(N2CCOCC2)c2ccccc23)no1,182 to 186
11,COc1cc(COc2nn(Cc3ccccc3)cc2C(C)O)ccc1OCc1nc(-c2ccco2)oc1C (centres undefined),105 to 106
12,CN1CCC(OC(c2ccccc2)c2nc3ccccc3[nH]2)C1 (centres undefined),53
13,Cc1cc(Cc2cc(C)cc(C(C)(C)C)c2O)c(O)c(-n2nc3ccccc3n2)c1,167
14,Cc1ccn2ncc(C(=O)NC3CN4CCC3CC4)c2c1 (centres undefined),100 to 102
15,O=C(O)CCC(=O)OCc1ccc(-c2nn(-c3ccc(Br)cc3)c3ccccc23)o1,111 to 113
16,COc1ccc2c(c1)CCC1C2=CCC2(C)C(=O)CCC12 (centres undefined),139 to 143
17,O=C(O)c1cc(S(=O)(=O)Cl)cc2c1OCCO2,210 to 215
18,NC(=O)C(c1ccccc1)(c1ccccc1)C1CCN(Cc2ccccc2)C1 (centres undefined),135 to 138
19,CCOC(=O)OCC1(C)COC(=O)OC1,68 to 69
